How the values were obtained:
HepG2 cells = test: [14C] Acetate Incorporation HepG2 Cellular Assay; format: cell-based; conditions: Hep-G2 cells, FIG. 7
Experimental: Compounds of the present invention were evaluated in a [^14C] Acetate Incorporation Assay. An exemplary procedure for the assay, which measures the incorporation of isotopically labeled acetate into fatty acids, follows. HepG2 cells were maintained in T-75 flasks containing DMEM supplemented with 2 mM 1-glutamine, penicillin G (100 units/ml), streptomycin 100 μg/ml with 10% FBS and incubated in a humidified incubator with 5% CO2 at 37° C. Cells were fed every 2-3 days. On Day 1. cells were seeded in 24 well plates at a density of 1.2×10^5 cells/ml/well with the growth medium. On Day 3 the medium was replaced with fresh medium containing 10% FBS. On Day 4 the medium was replaced with 0.5 ml of fresh medium containing test compound (in DMSO; final [DMSO] is 0.5%) and the cells were incubated at 37° C. for 1 hour. To one copy of plate, 4 ul of [2-^14C]acetate (56 mCi/mmol; 1 mCi/ml; PerkinElmer) was added and the cells were incubated at 37° C., 5% CO2 for 5 hrs. To a second copy of plate, 4 ul of cold acetate were added and the cells were incubated at 37° C., 5% CO2 for 5 hrs. This plate was used for protein concentration measurement. Medium was removed and placed in a 15 ml centrifuge tube (BD, Falcon/352096). Cells were rinsed with 1 ml PBS, then aspirated, and the rinse and aspiration steps were repeated. 0.5 ml of 0.1N NaOH were added to each well and let sit at RT to dissolve cell monolayer. The remaining cell suspension was pooled with medium. For the protein determination plate, an aliquot was removed for protein determination (25 ul). […] 5 ml petroleum ether was added per tube, shaken vigorously, centrifuged at 1000 rpm for 5 min, and 500 uL of the petroleum ether layer was transferred to tubes for Microbeta reading, then 2 ml Aquasol-2 were added to each tube, the tubes were shaken and counted with a Microbeta Liquid Scintillation Counter (Perkin Elmer).
The remaining petroleum ether layer was discarded and the aqueous phase reserved for fatty acid extractions. […] 2 ml of Aquasol-2 was added to each vial, and the vials were shaken and counted on a scintillation counter.

[1] = format: in vivo, Sprague Dawley rats; conditions: 2 weeks
Experimental: The compounds of the present invention are readily adapted to clinical use as anti-obesity agents, insulin sensitizing agents, hyperinsulinemia-reversing agents, and hepatic steatosis-reversing agents. Such activity was determined by assessing the amount of test compound that reduces body weight and percentage body fat, reduces plasma insulin levels, blunts the rise and/or accelerates the reduction in plasma insulin and glucose levels in response to an oral glucose challenge, and reduces hepatic lipid content relative to a control vehicle without test compound in mammals. Sprague Dawley rats were fed either chow, a diet high in sucrose (for example AIN76A rodent diet; Research diets Inc. Cat #10001) or a diet high in fat (for example Research diets Inc. Cat #12451), for from 3-8 weeks prior to and during test compound administration.
For example, after a 3-8 week period of ad libitum feeding of either a chow, high-fat, or high-sucrose diet, animals that continued to receive the diet were treated for 1-8 weeks with test compound administered either by oral gavage in water or saline or water or saline containing 0.5% methylcelluose using a Q.D., B.I.D, or T.I.D. dosing regimen. At various times during study and at sacrifice (by CO2 asphyxiation), blood was collected either from the tail vein of an unanesthesized rat or from the vena cava of animals at sacrifice into heparin or EDTA containing tubes for centrifugal separation to prepare plasma. Plasma levels of parameters of lipid and carbohydrate metabolism known by those skilled in the art to be altered coincident with anti-obesity, insulin sensitizing, hyperinsulinemia-reversing, and hepatic steatosis-reversing actions, including but not limited to cholesterol and triglycerides, glucose, insulin, leptin, adiponectin, ketone bodies, free fatty acids, and glycerol, are measured using methods known to those skilled in the art.
The anti-obesity, insulin sensitizing, hyperinsulinemia-reversing, and hepatic steatosis-reversing potential of compounds of the present invention are exemplified through the actions of example compound I-181. […] Results of the reduction in total body weight measurements after treatment of high fat diet-fed DIO rats with compound I-181 are shown in FIG. 11. The degree of body weight reduction paralleled plasma drug levels measured at the end of the study. […] The plasma leptin levels for animals receiving the standard chow diet (lean controls) were also evaluated to determine the extent of parameter normalization produced by compound I-181. […] Results of the reduction in plasma insulin measurements after treatment of high fat diet-fed DIO rats with compound I-181 are shown in FIG. 12. […] Results of the reduction in hepatic triglyceride and cholesterol measurements after treatment of high fat diet-fed DIO rats with compound I-181 are shown in FIG. 13. […] Results of diet-induced obesity studies measuring the effect of compound I-181 on plasma cholesterol and plasma triglycerides are shown in Table 4 below. Data shown are mean values for n=14 animals per group±SEM.

[2] = high-fat diet rats, 3, 10, 30 mg/kg once daily oral gavage

## COc1ccccc1[C@H](Cn1c(=O)n(C(C)(C)C(=O)O)c(=O)c2c(C)c(-c3ncco3)sc21)OC1CCOCC1 [I-181, 2-[1-[2-(2-methoxyphenyl)-2-(oxan-4-yloxy)ethyl]-5-methyl-6-(1,3-oxazol-2-yl)-2,4-dioxo-1H,2H,3H,4H-thieno[2,3-d]pyrimidin-3-yl]-2-methylpropanoic acid]
HepG2 cells
  incorporation of isotopically labeled acetate into fatty acids: inhibit incorporation of isotopically labeled acetate into fatty acids
[1]; [2]
  plasma glucose levels: no concomitant reduction in plasma glucose levels
  plasma leptin levels: reduced by all compound I-181 doses evaluated
[1]; high-fat diet rats, 3, 10, 30 mg/kg once daily oral gavage, FIG. 11
  total body weight relative to vehicle-treated control animals: dose-dependent reduction in total body weight
[1]; high-fat diet rats, 3, 10, 30 mg/kg once daily oral gavage, FIG. 12
  plasma insulin levels: reduced to near lean control levels by all three compound I-181 doses
[1]; high-fat diet rats, 3, 10, 30 mg/kg once daily oral gavage, FIG. 13
  hepatic triglycerides: reduced in a dose-dependent manner
[1]; high-fat diet rats, highest dose evaluated (30 mg/kg)
  hepatic triglycerides at the highest dose: normalized to lean control levels by the highest dose evaluated

Reference: US9453026B2, “ACC inhibitors and uses thereof” (Gilead Apollo, Inc., priority 2011, dated 2016)
